From patent EP0073715A1, “Brominated compounds for use in opacifying products” (Société dite: GUERBET S.A., priority 1981, dated 1983) come the findings set out here.

This series is described as follows: Protein binding (Brodersen technique). The note with it: weaker interaction means better tolerance, read-out: Liaison protéique (converted). The source says: Plus cette interaction est faible et meilleure est la tolérance.

As to `O=C(CCCCC(=O)Nc1c(I)cc(I)c(C(=O)O)c1I)Nc1c(I)cc(I)c(C(=O)O)c1I` [Adipiodone de méthylglucamine], the Kd is 78.1 µM.
